Columns and labels:
[1] = system: HSV-1 strain F or KOS; test: Inhibition of herpes simplex virus (HSV-1) replication in cell culture (BHK-21 cells, glycoprotein C ELISA); assay type: cell-based; details: Human alphaherpesvirus 1, BHK-21; Group 1 Table 1
Experimental: B) Inhibition of Herpes Simplex Virus (HSV-1) Replication in Cell Culture
Assay: BHK-21 cells clone 13 (ATCC CCL10) were incubated for two days in 850 cm^2 roller bottles (2×10^7 cells/bottle) with α-MEM medium (Gibco Canada Inc., Burlington, Ontario, Canada) supplemented with 8% (v/v) fetal bovine serum (FBS, Gibco Canada, Inc.). The cells were trypsinized and then 3,000 cells in 100 μL of fresh medium were transferred into each well of a 96-well microtiter plate. The cells were incubated at 37° for a period of 3 days to reach a density of 50,000 cells per well. The cells were washed twice with 100 μL of α-MEM supplemented with 2% heat inactivated FBS and incubated for 1-2 hours in 100 μL of the same medium.
Thereafter, the cells were infected with HSV-1 strain F or KOS (multiplicity of infection=0.05 PFU/cell) in 50 μL of α-MEM supplemented with 2% heat inactivated FBS. Following one hour of virus absorption at 37°, the medium was removed and the cells were washed with α-MEM supplemented with 2% heat inactivated FBS (2×100 μL). The cells were incubated with or without 100 μL of the appropriate concentration of test reagent in α-MEM medium supplemented with 2% heat inactivated FBS. After 24 hours of incubation at 37°, the extent of viral replication was determined by an ELISA assay; for instance, the following assay that detects the late glycoprotein C of HSV-1.
Cells were fixed in the microtiter plate with 100 μL of 0.063% glutaraldehyde in phosphate buffered saline for 30 min at room temperature. The microtiter plate was then washed once with casein blocking solution and blocked with 200 μL of the same solution for one hour at room temperature. Thereafter, 100 μL of mAb C11 recognizing the glycoprotein C of HSV-1 (see E. Trybala et al., Journal of General Virology, 1994, 75, 743) was added to each well for two hours at room temperature. The plate was washed three times with phosphate buffered saline containing 0.05% polyoxyethylene (20) sorbitan monooleate. The cells were incubated with 100 μL of sheep anti-mouse IgG horseradish peroxidase for one hour at room temperature in the dark.
The plate was washed three times with 200 μL of the above-noted phosphate buffer saline preparation, and then once with 0.1 M sodium citrate (pH 4.5). Thereafter, 100 μL of orthophenylenediamine dihydrochloride (OPD, Gibco, Canada Inc.) was added to each well. The plate was agitated on a microplate shaker for 30 min in the dark. Color development was monitored at 450 nm using a microplate spectrophotometer.
SAS was used to calculate % inhibition of viral replication and to generate EC50 values.

[2] = target: T1, HSV-1 helicase-primase (Human herpesvirus 1, UniProt P10189+P10236); test: HSV-1 DNA-dependent ATPase assay (inhibition of HSV-1 helicase-primase); assay type: biochemical; details: Group 1 Table 1
T1 construct: made in house; host or cells: Sf21 insect cells triply infected with recombinant baculoviruses
Outline: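 HSV-1 helicase-primase holoenzyme (UL5/UL8/UL52, expressed in baculovirus-infected Sf21 cells, purified; 3 μg/mL) with 4 mM ATP and 25 μM primed single-stranded M13 DNA in HEPES pH 7.5, 5.5 mM MgCl2, 3.3% DMSO, 20 min at 34°. Released phosphate is read with malachite green at 650 nm, and activity is taken from the net absorbance change.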

T1 sequence (P10189 whole entry): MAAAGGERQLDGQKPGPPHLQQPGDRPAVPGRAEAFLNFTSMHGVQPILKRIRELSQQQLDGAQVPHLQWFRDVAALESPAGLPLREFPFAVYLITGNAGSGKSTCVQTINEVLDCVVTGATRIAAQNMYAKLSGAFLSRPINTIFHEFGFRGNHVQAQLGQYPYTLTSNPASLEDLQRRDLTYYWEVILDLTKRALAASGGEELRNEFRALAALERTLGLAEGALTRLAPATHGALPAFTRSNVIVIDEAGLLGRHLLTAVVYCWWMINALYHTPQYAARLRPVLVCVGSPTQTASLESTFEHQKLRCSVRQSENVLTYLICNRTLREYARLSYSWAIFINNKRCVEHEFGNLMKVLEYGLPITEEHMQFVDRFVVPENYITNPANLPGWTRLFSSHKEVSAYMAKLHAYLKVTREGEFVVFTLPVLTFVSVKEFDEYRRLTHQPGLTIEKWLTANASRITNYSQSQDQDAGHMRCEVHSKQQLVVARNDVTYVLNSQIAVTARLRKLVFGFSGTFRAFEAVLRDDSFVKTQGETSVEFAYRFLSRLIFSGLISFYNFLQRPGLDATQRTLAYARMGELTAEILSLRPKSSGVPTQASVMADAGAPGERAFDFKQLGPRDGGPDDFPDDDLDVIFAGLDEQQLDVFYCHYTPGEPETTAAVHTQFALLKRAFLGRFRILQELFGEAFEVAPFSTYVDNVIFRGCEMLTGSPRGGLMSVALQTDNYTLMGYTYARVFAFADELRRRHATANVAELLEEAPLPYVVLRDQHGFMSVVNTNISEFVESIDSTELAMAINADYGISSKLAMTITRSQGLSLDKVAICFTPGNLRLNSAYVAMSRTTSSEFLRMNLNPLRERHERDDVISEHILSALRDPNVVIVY
T1 sequence (P10192 whole entry, further chain): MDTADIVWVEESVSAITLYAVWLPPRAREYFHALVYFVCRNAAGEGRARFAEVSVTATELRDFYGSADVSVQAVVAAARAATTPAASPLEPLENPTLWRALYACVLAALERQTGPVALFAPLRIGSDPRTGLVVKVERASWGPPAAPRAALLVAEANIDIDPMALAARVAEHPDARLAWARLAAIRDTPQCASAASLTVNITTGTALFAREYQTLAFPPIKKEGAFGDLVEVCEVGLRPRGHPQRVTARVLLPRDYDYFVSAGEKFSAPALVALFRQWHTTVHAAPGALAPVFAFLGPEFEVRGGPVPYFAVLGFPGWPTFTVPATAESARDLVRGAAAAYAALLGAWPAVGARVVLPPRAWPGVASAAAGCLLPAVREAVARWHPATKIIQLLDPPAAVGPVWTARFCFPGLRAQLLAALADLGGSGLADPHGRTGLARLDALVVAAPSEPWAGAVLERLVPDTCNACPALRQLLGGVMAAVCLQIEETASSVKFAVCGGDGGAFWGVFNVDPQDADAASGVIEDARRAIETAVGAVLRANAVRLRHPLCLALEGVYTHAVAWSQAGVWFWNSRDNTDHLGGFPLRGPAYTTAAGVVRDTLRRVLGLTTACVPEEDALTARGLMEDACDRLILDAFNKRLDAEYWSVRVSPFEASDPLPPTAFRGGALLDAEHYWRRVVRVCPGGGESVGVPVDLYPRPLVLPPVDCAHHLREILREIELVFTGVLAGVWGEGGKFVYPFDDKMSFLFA
T1 sequence (P10236 whole entry): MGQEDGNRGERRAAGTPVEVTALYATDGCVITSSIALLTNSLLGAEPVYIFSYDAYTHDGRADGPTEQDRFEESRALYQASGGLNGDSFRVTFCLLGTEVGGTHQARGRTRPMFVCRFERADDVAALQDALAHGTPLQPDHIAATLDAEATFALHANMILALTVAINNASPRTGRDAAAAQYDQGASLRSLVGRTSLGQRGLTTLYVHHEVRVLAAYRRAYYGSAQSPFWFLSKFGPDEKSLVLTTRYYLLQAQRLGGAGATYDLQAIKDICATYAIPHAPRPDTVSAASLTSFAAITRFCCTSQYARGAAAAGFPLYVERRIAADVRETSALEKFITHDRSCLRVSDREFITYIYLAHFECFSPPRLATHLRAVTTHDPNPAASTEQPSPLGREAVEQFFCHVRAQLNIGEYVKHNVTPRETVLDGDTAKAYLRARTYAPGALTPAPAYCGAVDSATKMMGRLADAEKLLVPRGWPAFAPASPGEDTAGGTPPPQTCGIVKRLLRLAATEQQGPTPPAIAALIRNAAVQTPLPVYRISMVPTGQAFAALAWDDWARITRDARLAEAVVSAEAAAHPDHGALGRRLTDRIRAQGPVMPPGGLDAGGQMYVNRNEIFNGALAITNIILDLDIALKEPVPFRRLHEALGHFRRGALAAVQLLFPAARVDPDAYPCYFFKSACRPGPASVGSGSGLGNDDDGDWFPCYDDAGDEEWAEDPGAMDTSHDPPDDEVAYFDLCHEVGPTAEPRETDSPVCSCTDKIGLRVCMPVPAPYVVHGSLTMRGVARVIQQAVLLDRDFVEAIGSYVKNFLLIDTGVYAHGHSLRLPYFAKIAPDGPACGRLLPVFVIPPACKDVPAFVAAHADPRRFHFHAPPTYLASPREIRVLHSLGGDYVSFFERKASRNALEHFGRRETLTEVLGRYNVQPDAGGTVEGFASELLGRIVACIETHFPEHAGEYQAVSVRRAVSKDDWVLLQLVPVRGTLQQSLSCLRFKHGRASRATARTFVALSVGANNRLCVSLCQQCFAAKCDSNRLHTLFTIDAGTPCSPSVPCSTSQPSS

Nc1nc(-c2ccc(NC(=O)CN(CCc3ccccc3)C(=O)c3cccnc3)cc2)cs1 [Example 67]
EC50 [1]: 210 nM | IC50 [2]: 350 nM
